Reference: ChEMBL document CHEMBL4011630 (J Med Chem, 2017)
pIC50: −log10 of the molar value. Where a SMILES comes first, the peptide text is derived from it. Bridges are numbered along the chain shown (N, C = ends). [ ]: non-standard residue; d: D form. hMet = CSCCC[C@H](N)C(=O)O

Tests used:
[1] = species on record: Rattus norvegicus; test: Selectivity ratio of IC50 for rat alpha6/alpha3beta4 nACHR expressed in xenopous laevis oocyte after 6 to 10 mins to IC50 for rat alpha3beta4 nACHR expressed in xenopous laevis oocyte after 6 to 10 mins
[2] = target: T1, Nicotinic acetylcholine receptor alpha6/alpha3/beta4 (Rattus norvegicus, UniProt P04757+P12392+P43143); test: Antagonist activity at rat alpha6/alpha3beta4 nACHR expressed in xenopous laevis oocyte assessed as inhibition of ACh induced channel current after 6 to 10 mins at -70 mV holding potential by two electrode voltage clamp method
[3] = target: T2, Neuronal acetylcholine receptor; alpha3/beta4 (Rattus norvegicus, UniProt P04757+P12392); test: Antagonist activity at rat alpha3beta4 nACHR expressed in xenopous laevis oocyte assessed as inhibition of ACh induced channel current after 6 to 10 mins at -70 mV holding potential by two electrode voltage clamp method
[4] = target: T1, Nicotinic acetylcholine receptor alpha6/alpha3/beta4; test: Antagonist activity at rat alpha6/alpha3beta4 nACHR expressed in xenopous laevis oocyte assessed as inhibition of ACh induced channel current after 5 mins at -70 mV holding potential by two electrode voltage clamp method
[5] = target: T2, Neuronal acetylcholine receptor; alpha3/beta4; test: Antagonist activity at rat alpha3beta4 nACHR expressed in xenopous laevis oocyte assessed as inhibition of ACh induced channel current after 5 mins at -70 mV holding potential by two electrode voltage clamp method

T2 sequence (P04757 whole entry): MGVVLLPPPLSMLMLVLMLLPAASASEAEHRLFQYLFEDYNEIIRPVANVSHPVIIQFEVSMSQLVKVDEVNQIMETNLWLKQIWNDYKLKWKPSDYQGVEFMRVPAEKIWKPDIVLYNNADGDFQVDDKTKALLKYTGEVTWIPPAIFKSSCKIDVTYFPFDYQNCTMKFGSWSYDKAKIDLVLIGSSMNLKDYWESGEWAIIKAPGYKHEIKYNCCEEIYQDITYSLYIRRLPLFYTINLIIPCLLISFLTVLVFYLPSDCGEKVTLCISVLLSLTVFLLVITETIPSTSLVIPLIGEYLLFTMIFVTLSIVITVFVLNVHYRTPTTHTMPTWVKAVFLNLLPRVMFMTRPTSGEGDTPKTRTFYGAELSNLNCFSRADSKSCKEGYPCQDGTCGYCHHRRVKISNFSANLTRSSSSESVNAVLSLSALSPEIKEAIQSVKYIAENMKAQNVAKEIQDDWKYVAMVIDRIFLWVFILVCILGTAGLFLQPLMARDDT
T2 sequence (P12392 whole entry): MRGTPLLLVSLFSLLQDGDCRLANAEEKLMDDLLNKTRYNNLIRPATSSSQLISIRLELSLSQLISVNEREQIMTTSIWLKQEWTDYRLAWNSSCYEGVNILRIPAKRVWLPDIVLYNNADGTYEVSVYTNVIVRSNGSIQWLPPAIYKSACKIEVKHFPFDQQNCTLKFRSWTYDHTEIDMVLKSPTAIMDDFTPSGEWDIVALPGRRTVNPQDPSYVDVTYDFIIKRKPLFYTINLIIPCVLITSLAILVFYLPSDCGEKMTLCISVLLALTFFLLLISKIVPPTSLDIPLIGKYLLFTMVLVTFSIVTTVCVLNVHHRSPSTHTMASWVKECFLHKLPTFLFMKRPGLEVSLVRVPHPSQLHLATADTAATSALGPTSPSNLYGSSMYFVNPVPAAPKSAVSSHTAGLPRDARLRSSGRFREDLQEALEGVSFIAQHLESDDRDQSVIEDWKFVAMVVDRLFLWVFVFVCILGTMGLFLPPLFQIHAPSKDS
T1 sequence (P04757 whole entry): as the sequence (P04757 whole entry) above
T1 sequence (P12392 whole entry): as the sequence (P12392 whole entry) above
T1 sequence (P43143 whole entry): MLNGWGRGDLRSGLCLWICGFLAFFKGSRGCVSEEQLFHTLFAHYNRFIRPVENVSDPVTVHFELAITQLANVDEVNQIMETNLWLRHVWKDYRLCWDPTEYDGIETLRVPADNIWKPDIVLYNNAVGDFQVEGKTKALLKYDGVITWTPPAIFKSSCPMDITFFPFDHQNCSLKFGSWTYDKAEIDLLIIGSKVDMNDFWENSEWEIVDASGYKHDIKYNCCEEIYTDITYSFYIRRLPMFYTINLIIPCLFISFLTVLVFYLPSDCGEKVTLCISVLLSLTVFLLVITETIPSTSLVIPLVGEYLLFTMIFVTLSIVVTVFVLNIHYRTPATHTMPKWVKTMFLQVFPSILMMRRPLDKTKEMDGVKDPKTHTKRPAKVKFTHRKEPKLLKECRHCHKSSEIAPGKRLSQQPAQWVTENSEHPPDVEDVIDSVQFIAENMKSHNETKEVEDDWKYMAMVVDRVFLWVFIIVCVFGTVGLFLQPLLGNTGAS

Question: With `CC[C@H](C)[C@@H]1NC(=O)[C@H](CCC(N)=O)NC(=O)[C@@H]2CCCN2C(=O)[C@H](CC(N)=O)NC(=O)[C@H](Cc2cnc[nH]2)NC(=O)[C@H](C(C)C)NC(=O)[C@H]([C@@H](C)O)NC(=O)[C@@H]2CSSC[C@H](NC(=O)[C@@H]3CCCN3C(=O)[C@H](CC(=O)O)NC(=O)[C@@H](N)CCCNC(=N)N)C(=O)N[C@@H](CSSC[C@@H](C(N)=O)NC1=O)C(=O)N[C@@H](CO)C(=O)N[C@@H](CC(N)=O)C(=O)N1CCC[C@H]1C(=O)N[C@@H](C(C)C)C(=O)N2` (H-RDPCCSNPVCTVHNPQIC-NH2; disulfide 4-10, 5-18) as the molecule, how does the Ratio IC50 [1] read?
Answer: 0.058

Question: With `CC[C@H](C)[C@@H]1NC(=O)[C@H](CCC(N)=O)NC(=O)[C@@H]2CCCN2C(=O)[C@H](CC(N)=O)NC(=O)[C@H](Cc2cnc[nH]2)NC(=O)[C@H](C(C)C)NC(=O)[C@H]([C@@H](C)O)NC(=O)[C@@H]2CSSC[C@H](NC(=O)[C@@H]3CCCN3C(=O)[C@H](CC(=O)O)NC(=O)[C@@H](N)CCCN=C(N)N)C(=O)N[C@@H](CSSC[C@@H](C(N)=O)NC1=O)C(=O)N[C@@H](CO)C(=O)N[C@@H](CC(N)=O)C(=O)N1CCC[C@H]1C(=O)N[C@@H](C(C)C)C(=O)N2` (H-RDPCCSNPVCTVHNPQIC-NH2; disulfide 4-10, 5-18) as the molecule, how does the pIC50 [2] read?
Answer: 7.52

Question: What about the pIC50 [3] of the same molecule?
Answer: 6.29

Question: `CC[C@H](C)[C@@H]1NC(=O)[C@H](C)NC(=O)[C@H](C)NC(=O)[C@@H]2CSSC[C@H](NC(=O)CN)C(=O)N[C@@H](CSSC[C@@H](C(N)=O)NC(=O)[C@H]([C@@H](C)CC)NC(=O)[C@@H]3CCCN3C(=O)[C@H](CO)NC1=O)C(=O)N[C@@H](CO)C(=O)N[C@@H](Cc1cnc[nH]1)C(=O)N1CCC[C@H]1C(=O)N[C@@H](C(C)C)C(=O)N2` (H-GCCSHPVCAAISPIC-NH2; disulfide 2-8, 3-15) was tested. Which pIC50 [4] did it give?
Answer: 7.00

Question: And the pIC50 [5]?
Answer: 7.51

Question: `CC[C@H](C)[C@@H]1NC(=O)[C@@H]2CCCN2C(=O)[C@H](CO)NC(=O)[C@H](CCCSC)NC(=O)[C@H](C)NC(=O)[C@H](CO)NC(=O)[C@@H]2CSSC[C@H](NC(=O)CN)C(=O)N[C@@H](CSSC[C@@H](C(N)=O)NC1=O)C(=O)N[C@@H](CO)C(=O)N[C@@H](Cc1cnc[nH]1)C(=O)N1CCC[C@H]1C(=O)N[C@@H](C)C(=O)N2` (H-GCCSHPACSA[hMet]SPIC-NH2; disulfide 2-8, 3-15) was tested. Which pIC50 [4] did it give?
Answer: < 5.00

Question: What about the pIC50 [5] of the same molecule?
Answer: < 5.00

Question: `CC[C@H](C)[C@@H]1NC(=O)[C@@H]2CCCN2C(=O)[C@H](C)NC(=O)[C@H](CCCSC)NC(=O)[C@H](C)NC(=O)[C@H](CO)NC(=O)[C@@H]2CSSC[C@H](NC(=O)CN)C(=O)N[C@@H](CSSC[C@@H](C(N)=O)NC1=O)C(=O)N[C@@H](CO)C(=O)N[C@@H](Cc1cnc[nH]1)C(=O)N1CCC[C@H]1C(=O)N[C@@H](C(C)C)C(=O)N2` (H-GCCSHPVCSA[hMet]APIC-NH2; disulfide 2-8, 3-15) was tested. Which pIC50 [4] did it give?
Answer: 7.41

Question: And the pIC50 [5]?
Answer: 7.76
